Legend:
Melanomas = conditions: melanoma patients; cited from earlier work
[1] = tested on: MDA435 cells (Breast cancer); experiment: Growth inhibition of human tumor cell lines; assay type: cell-based; conditions: SS 12.5 μg/ml, IFNα 1,000 u/ml, alone or combined
U266 cells = experiment: Apoptotic cells by Annexin V/propidium iodide assay; assay type: cell-based, human; conditions: sodium stibogluconate 100 μg/ml, IFNα 1000 u/ml, 3 days, control 8%
Procedure: Detection of apoptotic cells by Annexin V/propidium iodide assay. Annexin V staining of exposed membrane phospholipid phosphatidylserine (PS) was done using the Annexin V assay kit (Pharmingen, San Diego, Calif.). Briefly, U266 or WM9 cells were cultured in the 10% FCS RPMI 1640 medium in the absence or presence of sodium stibogluconate, IFNα, or both for 3 days. Cells were then washed in PBS twice and stained in binding buffer (10 mM Hepes, pH 7.4; 140 mM NaCl; 2.5 mM CaCl2) containing Annexin V-FITC and propidium iodide for 15 min. The reaction was stopped by adding 10 volumes of binding buffer and analyzed by FACS (Becton Dickinson Facsvantage) or fluorescent microscopy.

[2] = tested on: 5637 cells (Blader carcinoma); experiment: Growth inhibition of human tumor cell lines; assay type: cell-based; conditions: SS 12.5 μg/ml, IFNα 1,000 u/ml, alone or combined
WM35 cells (Melanoma) = experiment: Growth inhibition of human tumor cell lines; assay type: cell-based; conditions: SS 12.5 μg/ml, IFNα 1,000 u/ml, alone or combined
[3] = target: T1, MKP1 (GST fusion protein) (Homo sapiens, UniProt P28562); experiment: In vitro PTPase assay, dephosphorylation of a synthetic phosphotyrosine peptide; assay type: biochemical
T1 construct: made in house; host or cells: E. coli DH5a
T1 sequence (P28562 whole entry, species assumed, the tested form may be a part): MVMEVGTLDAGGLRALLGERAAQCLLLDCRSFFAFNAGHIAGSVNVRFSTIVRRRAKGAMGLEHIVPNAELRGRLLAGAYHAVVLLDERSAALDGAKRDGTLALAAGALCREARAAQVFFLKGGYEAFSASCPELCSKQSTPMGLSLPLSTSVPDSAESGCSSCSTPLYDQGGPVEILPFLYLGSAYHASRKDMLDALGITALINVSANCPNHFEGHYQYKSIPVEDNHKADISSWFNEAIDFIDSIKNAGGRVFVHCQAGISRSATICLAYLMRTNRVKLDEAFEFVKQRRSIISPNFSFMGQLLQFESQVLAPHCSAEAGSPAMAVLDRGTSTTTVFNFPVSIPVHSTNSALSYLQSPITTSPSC
Procedure: In vitro PTPase activities were measured using the commercial protein tyrosine phosphatase assay kit (UBI) following established procedure. This assay measures the in vitro dephosphorylation of a synthetic phosphotyrosine peptide (R-R-L-I-E-D-A-E-pY-A-A-R-G). Briefly, 0.01 μg of GST/PTPase fusion protein was incubated in 50 μl of Tris buffer (10 mM Tris, pH 7.4) containing different concentrations of inhibitors or chemicals (0 to 1,000 μg/ml) at 22° C. for 10 minutes, followed by addition of 0.2 mM of the phosphotyrosine peptide and incubation at 22° C. for […]. 100 μl of Malachite Green solution was added and incubated for 5 minutes, and the absorbance at 660 nm was measured after 5 minutes.

recombinant PRL-3 = target: T2, recombinant PRL-3 (Homo sapiens, UniProt O75365); experiment: In vitro PTPase assay with recombinant PRL (peptide or DiFMUP substrate); assay type: biochemical
T2 construct: made in house; host or cells: E. coli DH5α
T2 sequence (O75365 whole entry): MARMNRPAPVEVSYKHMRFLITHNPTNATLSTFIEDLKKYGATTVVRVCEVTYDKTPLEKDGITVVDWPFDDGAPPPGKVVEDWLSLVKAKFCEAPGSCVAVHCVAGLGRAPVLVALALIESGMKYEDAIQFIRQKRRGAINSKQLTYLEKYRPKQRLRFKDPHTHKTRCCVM
Procedure: In vitro PTPase activities were measured using the commercial protein tyrosine phosphatase assay kit (UBI) following established procedure. […] 100 μl of Malachite Green solution was added and incubated for 5 minutes, and the absorbance at 660 nm was measured after 5 minutes.
Recombinant GST fusion proteins of human PRL-1, 2 and 3 phosphatases were purified with glutathione beads from DH5α bacteria transformed by pGEX vectors containing cDNA fragments encoding the human PRLs which were generated by RT-PCR from H9 cells and confirmed by sequence analysis. Activities of the purified recombinant PRL proteins in dephosphorylating DiFMUP in the absence or presence of various inhibitors were measured following established procedure.
To assess whether sodium stibogluconate is an inhibitor of oncogenic PRL phosphatases, its effects on the PTPase activity of recombinant PRLs were evaluated by in vitro PTPase assays.

Compound | response rates (Melanomas) [%] | % of growth inhibition by day 6 (±s.d.) [1] | percentage of apoptotic cells (U266 cells) [%] | % of growth inhibition by day 6 (±s.d.) [2] | % of growth inhibition by day 6 (±s.d.) (WM35 cells (Melanoma)) | inhibitory activity against MKP1 [3] | inhibition of PRL-3 after prolonged pre-incubation (recombinant PRL-3; pre-incubation 30 or 60 minutes, 10 mg/ml) | reversibility of PRL-3 inactivation (recombinant PRL-3; washing process)
IFNα | 15 | 29 (15) % | 16 | 28 (17) % | 19 (3) % |  |  | 
O.O.O.O.O.O.O.O.O.O=C([O-])[C@@H]1[O][Sb]2([O-])([O][Sb]34([OH])[O][C@H]([C@H](O)CO)[C@H]([O]3)[C@H](C(=O)[O-])[O]4)[O][C@H]([C@H](O)CO)[C@@H]1[O]2.[Na+].[Na+].[Na+] [sodium stibogluconate] |  |  |  |  |  | no obvious inhibitory activity | nearly complete inactivation | not relieved
